Results: patent US12590099B2, “Inhibitors of histone deacetylase useful for the treatment or prevention of HIV infection” (Merck Sharp & Dohme LLC, priority 2018, dated 2026)

Experiments:
Assay type in all cases: biochemical
[1] = molecular target: T1, Recombinant human HDAC3/SMRT heterodimer (Homo sapiens, UniProt O15379); assay: Human HDAC enzyme inhibitor Fluor-de-Lys assay, HDAC3/SMRT
T1 construct: FLAG (C); made in house

HDAC6 = molecular target: T2, HDAC6 (Homo sapiens, UniProt Q9UBN7); assay: Human HDAC enzyme inhibitor Fluor-de-Lys assay, HDAC6
T2 sequence (Q9UBN7 1-1215): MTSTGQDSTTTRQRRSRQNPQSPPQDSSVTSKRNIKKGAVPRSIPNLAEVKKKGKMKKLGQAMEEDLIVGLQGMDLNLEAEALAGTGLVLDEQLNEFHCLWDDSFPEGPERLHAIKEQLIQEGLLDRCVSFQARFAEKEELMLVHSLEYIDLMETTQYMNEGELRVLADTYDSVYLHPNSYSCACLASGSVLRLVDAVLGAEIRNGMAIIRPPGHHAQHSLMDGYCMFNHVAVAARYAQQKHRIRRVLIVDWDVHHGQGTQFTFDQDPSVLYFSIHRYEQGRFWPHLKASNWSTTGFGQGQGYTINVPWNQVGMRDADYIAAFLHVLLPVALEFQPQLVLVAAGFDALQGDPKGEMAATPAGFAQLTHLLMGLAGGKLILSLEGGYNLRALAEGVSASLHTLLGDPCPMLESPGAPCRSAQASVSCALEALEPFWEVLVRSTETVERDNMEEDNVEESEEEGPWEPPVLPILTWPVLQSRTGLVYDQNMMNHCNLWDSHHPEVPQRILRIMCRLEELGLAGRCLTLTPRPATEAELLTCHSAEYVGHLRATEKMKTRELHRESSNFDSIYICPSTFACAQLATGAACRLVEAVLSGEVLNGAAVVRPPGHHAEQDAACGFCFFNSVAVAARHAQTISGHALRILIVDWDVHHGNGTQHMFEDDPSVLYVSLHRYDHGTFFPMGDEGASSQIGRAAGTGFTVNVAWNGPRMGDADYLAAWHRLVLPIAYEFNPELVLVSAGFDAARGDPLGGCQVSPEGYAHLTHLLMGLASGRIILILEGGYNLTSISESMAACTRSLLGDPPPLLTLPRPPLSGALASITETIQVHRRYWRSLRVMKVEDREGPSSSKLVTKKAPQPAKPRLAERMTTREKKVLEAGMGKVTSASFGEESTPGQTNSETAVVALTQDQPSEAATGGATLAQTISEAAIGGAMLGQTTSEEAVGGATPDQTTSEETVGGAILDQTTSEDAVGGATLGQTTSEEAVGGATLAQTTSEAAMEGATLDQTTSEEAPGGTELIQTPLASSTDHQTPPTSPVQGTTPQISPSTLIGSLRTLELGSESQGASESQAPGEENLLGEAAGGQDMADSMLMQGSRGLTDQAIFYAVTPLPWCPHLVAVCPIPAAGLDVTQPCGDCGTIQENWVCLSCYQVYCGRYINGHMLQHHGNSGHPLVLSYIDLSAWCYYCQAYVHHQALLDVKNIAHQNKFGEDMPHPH

Recombinant human HDAC8 = molecular target: T3, Recombinant human HDAC8 (Homo sapiens, UniProt Q9BY41); assay: Human HDAC enzyme inhibitor Fluor-de-Lys assay, HDAC8
T3 construct: purchased Enzo Life Sciences BML-SE145-0100
T3 sequence (Q9BY41 1-377): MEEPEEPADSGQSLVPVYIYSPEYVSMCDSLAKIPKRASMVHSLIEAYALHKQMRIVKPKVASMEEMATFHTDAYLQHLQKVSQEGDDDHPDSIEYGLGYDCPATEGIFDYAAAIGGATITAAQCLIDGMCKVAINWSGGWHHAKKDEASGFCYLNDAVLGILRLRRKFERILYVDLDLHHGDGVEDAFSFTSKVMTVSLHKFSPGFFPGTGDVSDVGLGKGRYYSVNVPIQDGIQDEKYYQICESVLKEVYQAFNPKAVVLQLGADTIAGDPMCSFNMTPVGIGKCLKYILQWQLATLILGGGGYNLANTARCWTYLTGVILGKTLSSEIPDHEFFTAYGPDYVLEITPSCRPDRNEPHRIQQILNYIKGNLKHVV

Recombinant human HDAC1 = molecular target: T4, Recombinant human HDAC1 (Homo sapiens, UniProt Q13547); assay: Human HDAC enzyme inhibitor Fluor-de-Lys assay, HDAC1
T4 construct: FLAG (C); made in house
Procedure: (§1) Human HDAC Enzyme Inhibitor Fluor-De-Lys Assay
(§2) Recombinant human HDAC8 (BML-SE145-0100) and HDAC10 (BML-SE559-0050) enzymes, HDAC substrates BML-KI104 and BML-KI178, and HDAC developer solutions BML-KI105 and BML-KI176 were purchased from Enzo Life Sciences. […] HDAC inhibitor suberoylanilide hydroxamic acid (SAHA) was obtained from Indofine and trichostatin A (TSA) was obtained from Sigma-Aldrich.
(§3) Recombinant human HDAC1, HDAC2, and HDAC3/SMRT heterodimer were prepared by Merck Research Laboratories. […] The eluted protein was then passed over an anti-HDAC1 immunoaffinity column to remove any complexes containing HDAC1. […]
(§4) The histone deacetylase activities of HDAC1, HDAC2, HDAC3, HDAC6, and HDAC8 were measured in modified FLUOR DE LYS assays in 384-well format. In this assay, HDAC enzymes are initially incubated with an ε-acetyl (or -trifluoroacetyl)-L-lysine-containing substrate with a C-terminal amide having aminomethylcoumarin as the amine component. HDACs cleave the ε-acetyl group, rendering the resulting product susceptible to AMC cleavage by trypsin. The released AMC is then detected by its fluorescence.
(§5) The HDAC3/SMRT assay employed buffer B, consisting of 20 mM HEPES, pH 8.0, 1 mM MgCl2, 50 mM NaCl, 2.7 mM KCl, 0.05% BSA, 0.005% Tween 20, and 10 μM IP4. […] The HDAC8 assay employed buffer D, consisting of 20 mM HEPES, pH 8.0, 1 mM MgCl2, 100 mM NaCl, 20 mM KCl, 0.10% n-octyl-β-D-glucoside (Anatrace) and 0.05% BSA. All steps were performed at room temperature (23° C.). The assay was performed by pre-incubating serial dilutions of test compounds with the target HDAC prior to initiation with substrate. Each compound was titrated in a 10-point dose response, using a 1:3 fold dilution scheme, with 0.15 ul of solution added by ECH0555 to the plate, followed by the addition of 20 μl of the appropriate HDAC isoform diluted in appropriate assay buffer. […] Final conditions used for each assay were: 1. HDAC 1, 0.3 nM total enzyme, 20 μM substrate BML-KI104; 2. […] HDAC 3/SMRT, 0.3 nM total enzyme, 20 μM substrate BML-KI104; 4. […] The reactions were stopped and developed by addition of 30 ul of HDAC developer solution containing a saturating level of HDAC inhibitor as follows: 1.

Recombinant human HDAC2 = molecular target: T5, Recombinant human HDAC2 (Homo sapiens, UniProt Q92769); assay: Human HDAC enzyme inhibitor Fluor-de-Lys assay, HDAC2
T5 construct: Full length human HDAC2-FLAG was expressed in baculovirus infected Sf9 cells; FLAG (C); made in house; host or cells: Sf9 (baculovirus)
Procedure: as §1, §2, §3, §4, §5

T4 sequence (Q13547 whole entry): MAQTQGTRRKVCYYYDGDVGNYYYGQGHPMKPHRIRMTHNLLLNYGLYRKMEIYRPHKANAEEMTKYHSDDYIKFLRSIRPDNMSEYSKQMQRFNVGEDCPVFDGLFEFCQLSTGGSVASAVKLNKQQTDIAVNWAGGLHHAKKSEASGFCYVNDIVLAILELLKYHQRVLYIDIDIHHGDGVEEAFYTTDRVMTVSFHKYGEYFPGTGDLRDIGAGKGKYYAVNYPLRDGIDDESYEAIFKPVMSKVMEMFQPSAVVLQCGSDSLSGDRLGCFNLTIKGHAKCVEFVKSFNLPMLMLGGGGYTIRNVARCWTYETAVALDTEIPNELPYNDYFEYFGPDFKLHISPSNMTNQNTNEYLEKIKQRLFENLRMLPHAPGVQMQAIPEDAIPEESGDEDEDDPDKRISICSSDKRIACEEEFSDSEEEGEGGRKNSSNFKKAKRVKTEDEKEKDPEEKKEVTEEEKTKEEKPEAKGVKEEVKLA
T5 sequence (Q92769 whole entry): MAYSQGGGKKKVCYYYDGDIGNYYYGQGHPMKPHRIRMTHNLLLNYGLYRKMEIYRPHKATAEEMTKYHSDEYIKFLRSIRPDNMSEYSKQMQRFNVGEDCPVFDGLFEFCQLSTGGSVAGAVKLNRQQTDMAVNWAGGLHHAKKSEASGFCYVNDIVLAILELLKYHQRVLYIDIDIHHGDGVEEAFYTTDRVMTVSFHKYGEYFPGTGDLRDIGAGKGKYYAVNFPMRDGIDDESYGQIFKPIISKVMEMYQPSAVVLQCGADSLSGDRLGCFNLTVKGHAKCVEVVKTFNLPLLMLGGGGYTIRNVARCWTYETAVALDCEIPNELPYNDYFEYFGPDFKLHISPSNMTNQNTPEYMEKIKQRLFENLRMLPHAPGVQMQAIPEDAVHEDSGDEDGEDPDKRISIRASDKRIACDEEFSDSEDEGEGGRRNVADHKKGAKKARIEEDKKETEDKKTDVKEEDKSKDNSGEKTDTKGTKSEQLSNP
T1 sequence (O15379 whole entry): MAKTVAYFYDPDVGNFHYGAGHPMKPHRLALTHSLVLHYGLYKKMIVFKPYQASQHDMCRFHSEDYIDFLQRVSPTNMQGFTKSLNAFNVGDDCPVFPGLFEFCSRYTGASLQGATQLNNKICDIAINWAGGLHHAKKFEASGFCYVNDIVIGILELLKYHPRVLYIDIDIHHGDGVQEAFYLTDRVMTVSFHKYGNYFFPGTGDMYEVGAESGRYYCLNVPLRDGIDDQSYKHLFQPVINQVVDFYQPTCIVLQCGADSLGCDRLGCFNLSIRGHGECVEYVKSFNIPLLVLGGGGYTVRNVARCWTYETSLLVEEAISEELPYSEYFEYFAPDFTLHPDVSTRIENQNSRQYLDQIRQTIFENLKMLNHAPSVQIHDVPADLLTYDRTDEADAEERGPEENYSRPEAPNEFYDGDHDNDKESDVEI
T1 sequence (Q9Y618 1-899 partner limits assumed): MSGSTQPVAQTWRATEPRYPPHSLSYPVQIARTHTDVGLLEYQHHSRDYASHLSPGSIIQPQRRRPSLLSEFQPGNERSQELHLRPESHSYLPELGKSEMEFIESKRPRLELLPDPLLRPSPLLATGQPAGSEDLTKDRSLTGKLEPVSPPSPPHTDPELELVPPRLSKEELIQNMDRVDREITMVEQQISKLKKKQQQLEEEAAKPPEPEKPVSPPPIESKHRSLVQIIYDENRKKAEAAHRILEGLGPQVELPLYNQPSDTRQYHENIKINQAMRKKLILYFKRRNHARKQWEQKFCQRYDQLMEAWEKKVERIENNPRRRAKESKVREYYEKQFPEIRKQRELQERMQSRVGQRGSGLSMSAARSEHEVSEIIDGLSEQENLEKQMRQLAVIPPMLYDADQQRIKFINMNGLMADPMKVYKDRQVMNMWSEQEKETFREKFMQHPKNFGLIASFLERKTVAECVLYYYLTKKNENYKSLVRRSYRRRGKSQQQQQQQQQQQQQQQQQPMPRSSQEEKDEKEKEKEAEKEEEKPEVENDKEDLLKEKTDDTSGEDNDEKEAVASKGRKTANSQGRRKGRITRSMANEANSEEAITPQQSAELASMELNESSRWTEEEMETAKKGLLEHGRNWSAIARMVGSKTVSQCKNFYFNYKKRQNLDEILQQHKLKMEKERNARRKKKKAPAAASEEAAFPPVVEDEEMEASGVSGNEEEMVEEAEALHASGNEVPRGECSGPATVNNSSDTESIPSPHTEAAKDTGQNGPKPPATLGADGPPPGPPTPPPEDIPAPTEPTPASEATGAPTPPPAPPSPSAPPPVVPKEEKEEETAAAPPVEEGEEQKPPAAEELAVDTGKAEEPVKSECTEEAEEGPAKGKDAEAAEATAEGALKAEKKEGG

| SMILES | IC50 [1] [nM] | IC50 (HDAC6) [nM] | IC50 (Recombinant human HDAC8) [nM] | IC50 (Recombinant human HDAC1) [nM] | IC50 (Recombinant human HDAC2) [nM] |
| --- | --- | --- | --- | --- | --- |
| CCC(=O)CCCCC[C@H](NC(=O)C1=NOC2(CCN(C(C)C)CC2)C1)c1ncc(-c2cc3ccccc3nc2OC)[nH]1 [Compound 106, N-{(1S)-1-[5-(2-methoxyquinolin-3-yl)-1H-imidazol-2-yl]-7-oxononyl}-8-(1-methylethyl)-1-oxa-2,8-diazaspiro[4.5]dec-2-ene-3-carboxamide] | < 1.5 | 1460 | 2780 | 1.73 | 7.9 |
| CCC(=O)CCCCC[C@H](NC(=O)C1=NOC2(CCN(CC)CC2)C1)c1ncc(-c2cc3ccc(C)nc3cc2OC)o1 [Compound 204] | 0.7 | 592 | > 900 | 0.34 | 3.9 |
| CCC(=O)CCCCC[C@H](NC(=O)[C@H]1CC12CCN(C)CC2)c1ncc(-c2ccc3nc(C4CC4)sc3c2)[nH]1 [Compound 146] | 0.64 | 7730 | 7710 | 1.06 | 3.3 |
| CCC(=O)CCCCC[C@H](NC(=O)[C@H]1CC12CCN(CC)CC2)c1ncc(-c2ccc3nc(C4CC4)ccc3c2)[nH]1 [Compound 101] | < 1.5 | 7370 | 6650 | < 1.5 | < 1.5 |
| CN1CCC2(CC1)C[C@@H]2C(=O)N[C@@H](CCCCCC(=O)CC(F)(F)F)c1ncc(-c2ccc(F)cc2)[nH]1 [Compound 68] | 8.59 | 6810 | 4410 | 8.74 | 126 |
| CCC(=O)CCCCC[C@H](NC(=O)[C@H]1CC12CCN(C)CC2)c1ncc(-c2ccc3oc(=O)ccc3c2)[nH]1 [Compound 138] | 1.62 | 1470 | 10100 | 1.32 | 7.9 |
| CCC(=O)CCCCC[C@H](NC(=O)[C@H]1CC12CCN(CC)CC2)c1ncc(-c2ccc3c(=O)n(C(C)C)ccc3c2)[nH]1 [Compound 126] | 0.19 | 18100 | 6480 | 0.19 | 1.3 |
| CC(O)C(=O)CCCCC[C@H](NC(=O)[C@H]1CC12CCN(C)CC2)c1nc(-c2ccc(F)cc2)c[nH]1 (stereo partly drawn) [Compound 134, (1S)—N-{(1S)-1-[4-(4-fluorophenyl)-1H-imidazol-2-yl]-8-hydroxy-7-oxononyl}-6-methyl-6-azaspiro[2.5]octane-1-carboxamide] | 4 | 1760 | 574 | 10.5 | 51.6 |
| CCC(=O)CCCCC[C@H](NC(=O)[C@H]1CC12CCN(C)CC2)c1ncc(-c2ccc3nc(CC)sc3c2)[nH]1 [Compound 149] | 0.62 | 3660 | 2720 | 0.5 | 3.9 |
